These results are taken from paper PMC11508362, “Discovery of Novel Thiazole-Based SIRT2 Inhibitors as Anticancer Agents: Molecular Modeling, Chemical Synthesis and Biological Assays” (International Journal of Molecular Sciences, 2024).

The term inhibition denotes how much of the control response was suppressed. Broadly, the IC50 is the concentration needed to halve the response being measured.

In data set [1] the target is T1, SIRT6 (Homo sapiens, UniProt Q8N6T7). Briefly: SIRT6 depalmitoylation reaction (H3K9Palm), recombinant protein. In kind it is biochemical. The settings on record: 150 µM, SD always ≤10%. The method, then:
(§1) Next, the selectivity of the compounds for SIRT2 against other sirtuins was also determined. The compounds were tested at the final concentration of 150 µM in the deacetylation reaction of SIRT1, SIRT3 and SIRT6, with this last one being promoted by the addition of the SIRT6 activator MDL-800 and also in the depalmitoylation reaction of SIRT6.

Data set [2] deals with T2, SIRT1 (Homo sapiens, UniProt Q96EB6).
T2 sequence (Q96EB6 1-747): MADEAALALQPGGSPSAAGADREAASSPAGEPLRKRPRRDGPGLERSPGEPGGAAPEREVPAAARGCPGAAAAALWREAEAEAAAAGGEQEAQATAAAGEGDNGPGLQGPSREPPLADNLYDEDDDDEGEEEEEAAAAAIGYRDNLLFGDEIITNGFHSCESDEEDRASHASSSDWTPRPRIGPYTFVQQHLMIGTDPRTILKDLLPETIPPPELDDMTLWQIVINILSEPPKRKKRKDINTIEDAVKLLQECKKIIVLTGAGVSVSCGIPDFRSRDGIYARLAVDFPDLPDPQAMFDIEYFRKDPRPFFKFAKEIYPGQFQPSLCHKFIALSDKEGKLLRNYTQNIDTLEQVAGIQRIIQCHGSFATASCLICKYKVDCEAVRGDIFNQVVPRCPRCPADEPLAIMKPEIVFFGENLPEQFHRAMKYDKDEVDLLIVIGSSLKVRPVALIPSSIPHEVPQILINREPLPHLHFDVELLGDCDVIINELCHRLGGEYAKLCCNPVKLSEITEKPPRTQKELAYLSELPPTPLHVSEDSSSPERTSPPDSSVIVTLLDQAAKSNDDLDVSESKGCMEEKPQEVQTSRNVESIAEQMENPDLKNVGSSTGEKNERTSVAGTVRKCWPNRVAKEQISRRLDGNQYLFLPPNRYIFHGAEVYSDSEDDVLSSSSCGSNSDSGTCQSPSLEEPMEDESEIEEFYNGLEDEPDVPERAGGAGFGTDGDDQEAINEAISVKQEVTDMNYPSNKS
Briefly: SIRT1 deacetylation reaction, recombinant protein. In kind it is biochemical. The settings on record: deacetylase activity, SD always ≤10%. The method, then: as §1

For data set [3], the target named is T1, SIRT6. Briefly: SIRT6 deacetylation reaction promoted by the SIRT6 activator MDL-800, recombinant protein. The class given is biochemical. The settings on record: 150 µM, with SIRT6 activator MDL-800, SD always ≤10%. The method, then: as §1
In data set [4] the test system is acetylation of α-tubulin in SCC13 cells. Briefly: Western blot of α-tubulin acetylation (endogenous SIRT2 inhibition) in SCC13 cells. In kind it is cell-based. The settings on record: 5 μM, 48 h, Western blot normalized to total α-tubulin. The procedure:
To confirm that the effect of 5a on cell viability was due to its ability to inhibit the endogenous SIRT2, Western blot analyses were performed to quantify the level of acetylation of α-tubulin, a direct substrate of SIRT2 enzymatic activity.
SCC13 cells (3 × 10^5) were seeded in 60 mm Petri dishes and left to adhere overnight. The day after, the medium was replaced with a medium containing 5a at a final concentration of 5 µM or the respective amount of DMSO vehicle. After 48 h, the medium was removed, and cells were washed with PBS and lysed by scraping with 100 µL of lysis buffer (25 mM Tris-HCl, pH 7.8; 2 mM DTT; 2 mM EDTA, 10% glycerol; 1% Triton® X-100). The lysate was clarified by centrifugation, and the protein concentration was measured using the Bradford assay. Twenty µg of proteins were loaded on a 10% polyacrylamide gel and then transferred to a nitrocellulose membrane. The membrane was saturated with 5% skim milk powder solution in TBS-Tween 0.05%. To determine the acetylation of alpha-tubulin, membranes were incubated with an anti-acetyl-alpha-tubulin antibody (#5335, Cell Signaling Technology, Danvers, MA, USA), whose signal was normalized on the total amount of alpha-tubulin (#2125, Cell Signaling Technology).

The test system of data set [5] is SCC13 cells. Nature of the data set: Cell viability by sulforhodamine B assay, SCC13. In kind it is cell-based. The settings on record: 48 h, increasing concentrations. The method, then: (§2) SCC13 and HaCaT cell lines were a kind gift from Prof. Alessio Nencioni (University of Genoa), and cells were maintained in Gibco™ Keratinocyte SFM 1X medium supplied with prequalified human recombinant epidermal growth factor 1–53 (EGF 1–53) and bovine pituitary extract (BPE, CAT# 17005042) (Thermo Fisher Scientific, Milano, Italy), with 50 IU/mL penicillin and 50 μg/mL streptomycin and cultured as in [36]. SCC13 and HaCaT cells were treated for 48 h with the putative SIRT2 inhibitor, and cell viability was analyzed by a sulforhodamine B assay. Briefly, 5000 cells/well were seeded in 96-well plates in triplicate and allowed to adhere overnight. The day after, the medium was replaced with fresh medium containing increasing concentrations of 5a. After 48 h, TCA was added, and samples were processed as previously described.
A general note: In SRB staining, fixed cells bind dye roughly in proportion to their protein.

In data set [6] the test system is HaCaT cells. The class given is cell-based. The method, then:
as §2

Data set [7] addresses T3, SIRT2 (Homo sapiens, UniProt Q8IXJ6).
T3 sequence (Q8IXJ6 1-389): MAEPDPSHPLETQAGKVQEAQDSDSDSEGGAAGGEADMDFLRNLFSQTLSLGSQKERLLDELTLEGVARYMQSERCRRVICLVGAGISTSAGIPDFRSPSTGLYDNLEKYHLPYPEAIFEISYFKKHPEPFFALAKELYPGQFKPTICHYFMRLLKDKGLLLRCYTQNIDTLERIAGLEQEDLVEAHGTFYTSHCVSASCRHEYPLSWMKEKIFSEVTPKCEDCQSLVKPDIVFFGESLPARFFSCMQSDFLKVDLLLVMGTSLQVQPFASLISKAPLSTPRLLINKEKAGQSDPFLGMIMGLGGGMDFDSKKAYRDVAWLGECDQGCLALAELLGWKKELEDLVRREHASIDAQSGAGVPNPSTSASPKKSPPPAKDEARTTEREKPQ
Nature of the data set: SIRT2 deacetylase activity, recombinant SIRT2 with acetylated peptide H3K9Ac and NAD+.
Protocol: The effect of urea derivatives on SIRT2 deacetylase activity was evaluated upon incubation of recombinant SIRT2 with an acetylated peptide (H3K9Ac, a peptide acetylated on Lys 9) and the co-substrate NAD^+.

The target in data set [8] is T4, SIRT3 (Homo sapiens, UniProt Q9NTG7).
T4 sequence (Q9NTG7 1-399): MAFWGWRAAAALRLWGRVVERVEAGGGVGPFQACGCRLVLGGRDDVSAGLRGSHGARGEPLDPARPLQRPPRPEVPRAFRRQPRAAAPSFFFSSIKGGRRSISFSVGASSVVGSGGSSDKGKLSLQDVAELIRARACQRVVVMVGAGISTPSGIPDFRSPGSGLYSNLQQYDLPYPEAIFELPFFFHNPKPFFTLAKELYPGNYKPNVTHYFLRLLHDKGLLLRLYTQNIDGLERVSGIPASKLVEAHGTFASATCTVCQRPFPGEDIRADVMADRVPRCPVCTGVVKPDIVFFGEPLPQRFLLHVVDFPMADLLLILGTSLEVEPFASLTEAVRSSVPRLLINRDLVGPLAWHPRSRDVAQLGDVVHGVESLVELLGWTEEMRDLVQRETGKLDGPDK
Nature of the data set: SIRT3 deacetylation reaction, recombinant protein. In kind it is biochemical. The settings on record: deacetylase activity, SD always ≤10%. The procedure:
as §1

For data set [9], the target named is T3, SIRT2. Set-up: method as in PMID 37765125. The settings on record: at 150 μM; cited from earlier work.

Entries after “also recorded” stand apart in the source; their conditions may differ.

T1 sequence (Q8N6T7 whole entry, species assumed): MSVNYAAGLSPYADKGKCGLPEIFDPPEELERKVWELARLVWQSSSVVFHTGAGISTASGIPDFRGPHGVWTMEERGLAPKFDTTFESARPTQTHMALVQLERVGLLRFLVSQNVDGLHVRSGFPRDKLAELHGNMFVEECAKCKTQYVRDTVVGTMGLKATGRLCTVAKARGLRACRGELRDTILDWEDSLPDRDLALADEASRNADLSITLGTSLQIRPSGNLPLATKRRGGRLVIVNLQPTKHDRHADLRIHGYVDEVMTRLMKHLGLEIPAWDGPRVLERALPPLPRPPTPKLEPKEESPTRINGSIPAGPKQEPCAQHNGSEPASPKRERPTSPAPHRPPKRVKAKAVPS

Turning to `CCOC(=O)c1sc(NC(=O)Nc2cccc(OC)c2)nc1-c1ccc(Br)cc1` [Compound 5a, Ethyl4-(4-bromophenyl)-2-(3-(3-methoxyphenyl)ureido)thiazole-5 carboxylate], the “% Inhibition SIRT6 (Depalmiotoylase)” value in [1] is reported as “ni”. For the same compound, the figures for the inhibition at 150 µM in data set [2], in data set [7] (read-out: % Inhibition SIRT2 (at 150 μM)) and in data set [8] were 100%, 98 ± 5% and 36%, respectively. In addition, the “% Inhibition SIRT6 (Deacetylase)” value in data set [3] is reported as “ni”. In addition, in data set [4], the “level of α-tubulin acetylation vs control cells” value is reported as “increases α-tubulin acetylation; also recorded: increased levels of alpha-tubulin acetylation”. In addition, the “cell death / toxicity (cell viability, SRB assay)” value in data set [5] is “concentration-dependent toxicity; also recorded: concentration-dependent cell death”. Besides, the “toxicity (cell viability, SRB assay)” value in [6] is on record as “not on the normal keratinocyte cell line HaCaT”. The IC50 in data set [7] came to 9 ± 2 µM.

On to `CCc1ccc(Nc2nc(-c3ccc(Cl)cc3)cs2)cc1SC` [Compound T1], for which the SIRT2 inhibition percentage in data set [9] is recorded as 100%.
